Several values for one entry are separate records, joined by “and”; a condition that tells them apart may be missing. Identical values can stand only once. Inconclusive results and toxic doses are left out. The calls were made as follows: active = survival T/C of 150% or more; inactive = T/C below 125% in these data.
System: CD2F1 mice, L1210 leukemia ip, survival T/C
Assay: NCI In Vivo Anticancer Drug Screen. Data for tumor model L1210 Leukemia (intraperitoneal) in CD2F1 (CDF1) mice
Conditions: higher = longer survival
How it was run: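 Transplantable tumor in mice; compound-treated vs vehicle-treated groups. Read-out = treated/control ratio of the measured endpoint.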

Measured: T/C

Cc1[nH]c(=O)[nH]c(=O)c1N(CCF)CCCl
inactive: endpoint: mean survival time, dose: 1.8 mg/kg/injection, schedule: Q01DX009 (ip), vehicle: saline 98 % of control | endpoint: mean survival time, dose: 3.0 mg/kg/injection, schedule: Q01DX009 (ip), vehicle: saline 102 % of control | endpoint: mean survival time, dose: 5.0 mg/kg/injection, schedule: Q01DX009 (ip), vehicle: saline 104 % of control | endpoint: mean survival time, dose: 8.0 mg/kg/injection, schedule: Q01DX001 (ip), vehicle: acid diluted with saline 95 % of control and 102 % of control | endpoint: mean survival time, dose: 8.0 mg/kg/injection, schedule: Q01DX001 (ip), vehicle: saline 98 % of control | endpoint: mean survival time, dose: 8.4 mg/kg/injection, schedule: Q01DX009 (ip), vehicle: saline 106 % of control | endpoint: mean survival time, dose: 8.4 mg/kg/injection, schedule: Q04DX003 (ip), vehicle: saline 108 % of control | endpoint: mean survival time, dose: 14.0 mg/kg/injection, schedule: Q01DX009 (ip), vehicle: saline 113 % of control | endpoint: mean survival time, dose: 14.0 mg/kg/injection, schedule: Q04DX003 (ip), vehicle: saline 105 % of control | endpoint: mean survival time, dose: 16.0 mg/kg/injection, schedule: Q01DX001 (ip), vehicle: acid diluted with saline 97 % of control and 100 % of control | endpoint: mean survival time, dose: 16.0 mg/kg/injection, schedule: Q01DX001 (ip), vehicle: saline 94 % of control and 100 % of control | endpoint: mean survival time, dose: 23.0 mg/kg/injection, schedule: Q01DX001 (ip), vehicle: saline 117 % of control | endpoint: mean survival time, dose: 23.0 mg/kg/injection, schedule: Q01DX009 (ip), vehicle: saline 107 % of control | endpoint: mean survival time, dose: 23.0 mg/kg/injection, schedule: Q04DX003 (ip), vehicle: saline 114 % of control | endpoint: mean survival time, dose: 32.0 mg/kg/injection, schedule: Q01DX001 (ip), vehicle: acid diluted with saline 96 % of control and 102 % of control | endpoint: mean survival time, dose: 32.0 mg/kg/injection, schedule: Q01DX001 (ip), vehicle: saline 105 % of control and 109 % of control | endpoint: mean survival time, dose: 39.0 mg/kg/injection, schedule: Q01DX001 (ip), vehicle: saline 117 % of control | endpoint: mean survival time, dose: 64.0 mg/kg/injection, schedule: Q01DX001 (ip), vehicle: acid diluted with saline 107 % of control and 110 % of control | endpoint: mean survival time, dose: 64.0 mg/kg/injection, schedule: Q01DX001 (ip), vehicle: saline 115 % of control and 120 % of control | endpoint: mean survival time, dose: 65.0 mg/kg/injection, schedule: Q01DX001 (ip), vehicle: saline 123 % of control | endpoint: median survival time, dose: 0.5 mg/kg/injection, schedule: Q03HX024 (ip), vehicle: acid diluted with saline 107 % of control | endpoint: median survival time, dose: 1.0 mg/kg/injection, schedule: Q03HX016 (ip), vehicle: acid diluted with saline 98 % of control | endpoint: median survival time, dose: 1.0 mg/kg/injection, schedule: Q03HX024 (ip), vehicle: acid diluted with saline 105 % of control | endpoint: median survival time, dose: 2.0 mg/kg/injection, schedule: Q01DX009 (ip), vehicle: acid diluted with saline 107 % of control | endpoint: median survival time, dose: 2.0 mg/kg/injection, schedule: Q03HX008 (ip), vehicle: acid diluted with saline 96 % of control | endpoint: median survival time, dose: 2.0 mg/kg/injection, schedule: Q03HX016 (ip), vehicle: acid diluted with saline 100 % of control | endpoint: median survival time, dose: 2.0 mg/kg/injection, schedule: Q03HX024 (ip), vehicle: acid diluted with saline 108 % of control | endpoint: median survival time, dose: 2.0 mg/kg/injection, schedule: Q03HX024 (oral), vehicle: acid diluted with saline 100 % of control | endpoint: median survival time, dose: 4.0 mg/kg/injection, schedule: Q01DX009 (ip), vehicle: acid diluted with saline 117 % of control | endpoint: median survival time, dose: 4.0 mg/kg/injection, schedule: Q01DX009 (sc), vehicle: acid diluted with saline 104 % of control | endpoint: median survival time, dose: 4.0 mg/kg/injection, schedule: Q03HX008 (ip), vehicle: acid diluted with saline 96 % of control | endpoint: median survival time, dose: 4.0 mg/kg/injection, schedule: Q03HX016 (ip), vehicle: acid diluted with saline 111 % of control | endpoint: median survival time, dose: 4.0 mg/kg/injection, schedule: Q03HX024 (ip), vehicle: acid diluted with saline 105 % of control | endpoint: median survival time, dose: 4.0 mg/kg/injection, schedule: Q03HX024 (oral), vehicle: acid diluted with saline 100 % of control | endpoint: median survival time, dose: 4.0 mg/kg/injection, schedule: Q04DX003 (ip), vehicle: acid diluted with saline 96 % of control | endpoint: median survival time, dose: 8.0 mg/kg/injection, schedule: Q01DX009 (ip), vehicle: acid diluted with saline 108 % of control | endpoint: median survival time, dose: 8.0 mg/kg/injection, schedule: Q01DX009 (oral), vehicle: acid diluted with saline 100 % of control | endpoint: median survival time, dose: 8.0 mg/kg/injection, schedule: Q01DX009 (sc), vehicle: acid diluted with saline 100 % of control | endpoint: median survival time, dose: 8.0 mg/kg/injection, schedule: Q03HX008 (ip), vehicle: acid diluted with saline 100 % of control | endpoint: median survival time, dose: 8.0 mg/kg/injection, schedule: Q03HX008 (oral), vehicle: acid diluted with saline 106 % of control | endpoint: median survival time, dose: 8.0 mg/kg/injection, schedule: Q03HX016 (ip), vehicle: acid diluted with saline 97 % of control | endpoint: median survival time, dose: 8.0 mg/kg/injection, schedule: Q03HX016 (oral), vehicle: acid diluted with saline 100 % of control | endpoint: median survival time, dose: 8.0 mg/kg/injection, schedule: Q03HX024 (ip), vehicle: acid diluted with saline 108 % of control | endpoint: median survival time, dose: 8.0 mg/kg/injection, schedule: Q03HX024 (oral), vehicle: acid diluted with saline 100 % of control | endpoint: median survival time, dose: 8.0 mg/kg/injection, schedule: Q04DX003 (ip), vehicle: acid diluted with saline 100 % of control | endpoint: median survival time, dose: 8.0 mg/kg/injection, schedule: Q08DX002 (ip), vehicle: acid diluted with saline 100 % of control | endpoint: median survival time, dose: 16.0 mg/kg/injection, schedule: Q01DX001 (ip), vehicle: acid diluted with saline 98 % of control | endpoint: median survival time, dose: 16.0 mg/kg/injection, schedule: Q01DX001 (sc), vehicle: acid diluted with saline 98 % of control | endpoint: median survival time, dose: 16.0 mg/kg/injection, schedule: Q01DX009 (ip), vehicle: acid diluted with saline 120 % of control | endpoint: median survival time, dose: 16.0 mg/kg/injection, schedule: Q01DX009 (oral), vehicle: acid diluted with saline 106 % of control | endpoint: median survival time, dose: 16.0 mg/kg/injection, schedule: Q01DX009 (sc), vehicle: acid diluted with saline 104 % of control | endpoint: median survival time, dose: 16.0 mg/kg/injection, schedule: Q03HX008 (ip), vehicle: acid diluted with saline 96 % of control | endpoint: median survival time, dose: 16.0 mg/kg/injection, schedule: Q03HX008 (oral), vehicle: acid diluted with saline 112 % of control | endpoint: median survival time, dose: 16.0 mg/kg/injection, schedule: Q03HX016 (ip), vehicle: acid diluted with saline 102 % of control | endpoint: median survival time, dose: 16.0 mg/kg/injection, schedule: Q03HX016 (oral), vehicle: acid diluted with saline 112 % of control | endpoint: median survival time, dose: 16.0 mg/kg/injection, schedule: Q03HX024 (oral), vehicle: acid diluted with saline 112 % of control | endpoint: median survival time, dose: 16.0 mg/kg/injection, schedule: Q04DX003 (ip), vehicle: acid diluted with saline 108 % of control | endpoint: median survival time, dose: 16.0 mg/kg/injection, schedule: Q04DX003 (oral), vehicle: acid diluted with saline 106 % of control | endpoint: median survival time, dose: 16.0 mg/kg/injection, schedule: Q08DX002 (ip), vehicle: acid diluted with saline 105 % of control | endpoint: median survival time, dose: 32.0 mg/kg/injection, schedule: Q01DX001 (ip), vehicle: acid diluted with saline 98 % of control | endpoint: median survival time, dose: 32.0 mg/kg/injection, schedule: Q01DX001 (sc), vehicle: acid diluted with saline 100 % of control | endpoint: median survival time, dose: 32.0 mg/kg/injection, schedule: Q01DX009 (oral), vehicle: acid diluted with saline 112 % of control | endpoint: median survival time, dose: 32.0 mg/kg/injection, schedule: Q03HX008 (ip), vehicle: acid diluted with saline 104 % of control | endpoint: median survival time, dose: 32.0 mg/kg/injection, schedule: Q04DX003 (ip), vehicle: acid diluted with saline 108 % of control | endpoint: median survival time, dose: 32.0 mg/kg/injection, schedule: Q04DX003 (oral), vehicle: acid diluted with saline 112 % of control | endpoint: median survival time, dose: 32.0 mg/kg/injection, schedule: Q08DX002 (ip), vehicle: acid diluted with saline 100 % of control | endpoint: median survival time, dose: 64.0 mg/kg/injection, schedule: Q01DX001 (ip), vehicle: acid diluted with saline 98 % of control | endpoint: median survival time, dose: 64.0 mg/kg/injection, schedule: Q01DX001 (oral), vehicle: acid diluted with saline 112 % of control | endpoint: median survival time, dose: 64.0 mg/kg/injection, schedule: Q01DX001 (sc), vehicle: acid diluted with saline 100 % of control | endpoint: median survival time, dose: 64.0 mg/kg/injection, schedule: Q01DX009 (oral), vehicle: acid diluted with saline 112 % of control | endpoint: median survival time, dose: 64.0 mg/kg/injection, schedule: Q04DX003 (ip), vehicle: acid diluted with saline 90 % of control | endpoint: median survival time, dose: 64.0 mg/kg/injection, schedule: Q04DX003 (oral), vehicle: acid diluted with saline 112 % of control | endpoint: median survival time, dose: 64.0 mg/kg/injection, schedule: Q08DX002 (ip), vehicle: acid diluted with saline 98 % of control | endpoint: median survival time, dose: 64.0 mg/kg/injection, schedule: Q08DX002 (oral), vehicle: acid diluted with saline 112 % of control | endpoint: median survival time, dose: 128.0 mg/kg/injection, schedule: Q01DX001 (oral), vehicle: acid diluted with saline 100 % of control | endpoint: median survival time, dose: 128.0 mg/kg/injection, schedule: Q01DX001 (sc), vehicle: acid diluted with saline 100 % of control | endpoint: median survival time, dose: 128.0 mg/kg/injection, schedule: Q04DX003 (oral), vehicle: acid diluted with saline 112 % of control | endpoint: median survival time, dose: 128.0 mg/kg/injection, schedule: Q08DX002 (oral), vehicle: acid diluted with saline 106 % of control | endpoint: median survival time, dose: 256.0 mg/kg/injection, schedule: Q01DX001 (oral), vehicle: acid diluted with saline 100 % of control | endpoint: median survival time, dose: 256.0 mg/kg/injection, schedule: Q01DX001 (sc), vehicle: acid diluted with saline 105 % of control | endpoint: median survival time, dose: 256.0 mg/kg/injection, schedule: Q04DX003 (oral), vehicle: acid diluted with saline 112 % of control | endpoint: median survival time, dose: 256.0 mg/kg/injection, schedule: Q08DX002 (oral), vehicle: acid diluted with saline 100 % of control | endpoint: median survival time, dose: 512.0 mg/kg/injection, schedule: Q01DX001 (oral), vehicle: acid diluted with saline 112 % of control

Reference: PubChem BioAssay AID256 (DTP/NCI, 2004)
